One test deals with HuH7 xenografts. Nature of the test: HSV1716 in combination with sorafenib in vivo in subcutaneous flank HuH7 xenografts. Also noted: species or system nude mice. As to the method:
Female 6-8 week old athymic nude mice (Charles River Labs, UK) were maintained under specific pathogen free conditions. Actively growing HuH7 cells were harvested and, after re-suspension in PBS, 1×10^6 cells per mouse were injected subcutaneously. Treatments were started when tumours reached 5 mm in diameter. Mice were inspected daily, when tumour diameters reached 15 mm they were sacrificed and the tumour xenograft removed for viral extraction. The viral load in tumours and various organs was assessed by plaque forming assay on Vero cells. Extracted intact tumours/organs were frozen immediately at −70° C. and, after thawing, the tissues were mechanically homogenized in a Retsch homogenizer in 1 ml PBS prior to titration.
Sorafenib for IP injections was obtained from Selleckchem UK, (S1040), and was reported as 100% pure. The dose was 10 mg/kg equivalent to 10 μg/g or 250 μg/mouse (25 g). The 0.1 ml intraperitoneal dose therefore required 250 μg/0.1 ml or 2.5 mg/ml. 50 mg sorafenib was dissolved in 0.5 ml DMSO and this was added to 19.5 ml PBS with 5% Tween80 and 5% PEG400 (both v/v). This is equivalent to c4 mM sorafenib. HSV1716gCluc which expresses luciferase from the HSV-1 gC promoter. The stock virus solution was 8×10^7 pfu/ml and 0.125 ml virus stock were added to 10 ml compound sodium lactate with 10% glycerol to give the injection solution at a titre of 1×10^6 pfu/ml. 0.1 ml injected it/mouse and is equivalent to 1×10^5 pfu.
In vivo combination with sorafenib and HSV1716 was analysed using the HuH7 subcutaneous xenograft HCC model in nude mice. Groups were—no treatment (n=10), sorafenib (n=6), HSV1716 (n=10), HSV1716 sorafenib (n=12). HSV1716gC-luc at 1×10^5 pfu was given on days 1, 3 and 9 and sorafenib at 10 mg/kg (Liu et al Cancer Res 2006; 66:11851-11858), was administered IP (Wang et al., Cancer Biol & Therapy 2011; 12:3, 229-238) every 2nd day from day 2 on 9 occasions. Virus was monitored by IVIS and tumour growth (FIG. 37) and survival (FIG. 38) were recorded.

For the next test, the system named is HCC. The following applies: monotherapy of HCC; cited from earlier work.

Take `CNC(=O)c1cc(Oc2ccc(NC(=O)Nc3ccc(Cl)c(C(F)(F)F)c3)cc2)ccn1` [sorafenib, 4-[4-[[4-chloro-3-(trifluoromethyl)phenyl]carbamoylamino]phenoxy]-N-methyl-pyridine-2-carboxamide]: in the test with HuH7 xenografts (HuH7 xenografts (FIG. 37)), the xenograft growth result is reported as “inhibited”. The mouse survival result in the test on HuH7 xenografts (HuH7 xenografts (FIG. 38)) is “survived longer than controls”. Besides, in the test with HuH7 xenografts (HuH7 xenografts (FIG. 38), virus 1×10^5 pfu days 1, 3, 9, sorafenib 10 mg/kg IP), the “period in which no mice died” value is recorded as “about 4 days”. In addition, in the test with HCC, the “prolongation of median survival and the time to progression” value was approximately 3 months; the “reduction of the risk of death during year 1” value is given as 31%.

The record behind these values is patent publication US20150125425A1, “TREATMENT OF LIVER CANCER” (priority 2012, published 2015).
